Results published in patent US9493528B2, “Microphthalmia-associated transcription factor-derived peptide and composition containing same” (KNU-INDUSTRY COOPERATION FOUNDATION, priority 2013, dated 2016).
No end group written: not given here.

Columns and labels:
[1] = system: TRP-2; test: Gene expression of TRP-2 in B16F1 cells (RT-PCR); assay type: cell-based, mouse; details: α-MSH, 72 hours, FIG. 7
Method: (§1) B16F1 cells (Korean Cell Line Bank, Seoul) were added to each well of a 6-well plate (1.5×10^5 cells per well), along with 2 ml of DMEM, and then stabilized through incubating in a 5% CO2 incubator at 37° C. for 24 hours. α-MSH (Sigma Co, MO, USA), a melanocyte-stimulating hormone, was treated to each well, along with the peptide of SEQ ID NO: 3 in predetermined concentrations. After incubating the plate for 72 hours, the total RNAs were extracted therefrom and then cDNAs were synthesized. The cDNA syntheses were carried out with a Reverse Transcription Master premix (Elpisbiotech, Daejeon, Korea). Using each synthesized cDNA as a template, reverse transcription polymerase chain reaction (RT-PCR) was carried out with a ROTOR Q GENE apparatus. Each RT-PCR solution was prepared by mixing 1 μl of cDNA, 10 μl of TOPreal qRT-PCR2X premix (Enzynomics, Daejeon, Korea), 2 μl of primer set (10 pmol) and 7 μl of D. W. The RT-PCR was carried out as follows: initially at 94° C. for 10 minutes; and then at 94° C. for 10 seconds, at 58° C. for 30 seconds, and at 72° C. for 1 minute; 40 cycles.
(§2) The results obtained by measuring the gene expressions of tyrosinase, TRP-1 and TRP-2 through the above RT-PCR are shown in FIG. 7.

[2] = system: TRP-1; test: Gene expression of TRP-1 in B16F1 cells (RT-PCR); assay type: cell-based, mouse; details: α-MSH, 72 hours, FIG. 7
Method: as §1, §2

[3] = system: tyrosinase (TYR); test: Gene expression of tyrosinase in B16F1 cells (RT-PCR); assay type: cell-based, mouse; details: α-MSH, 72 hours, FIG. 7
Method: as §1, §2

[4] = system: tyrosinase; test: Inhibitory activity against tyrosinase activity in mouse melanoma cell line B16F1 (L-DOPA); assay type: cell-based; details: B16F1 cells, α-MSH, 72 hours, extracts with L-DOPA 2 hours, absorbance at 490, FIG. 6
Method: B16F1 cells (Korean Cell Line Bank, Seoul) were added to each well of a 24-well plate (5×10^4 cells per well), along with 1 ml of DMEM, and then stabilized through incubating in a 5% CO2 incubator at 37° C. for 24 hours. α-MSH (Sigma Co, MO, USA), a melanocyte-stimulating hormone, was treated to each well, along with the peptide of SEQ ID NO: 3 in predetermined concentrations. After incubating the plate for 72 hours, the proteins were extracted therefrom. The obtained extracts were added to each well of a 96-well plate and then treated with a L-dihydroxyphenylalanine (L-DOPA) solution (100 μL) at 37° C. for 2 hours. After 2 hours, the pictures thereof were taken and the tyrosinase activities thereof were measured at […] with a microreader.

[5] = system: B16F1 cells; test: Inhibitory activity against proliferation of mouse melanoma cell line B16F1 (CCK-8); assay type: cell-based; details: peptide 0.01, 0.1, 1 or 10 μM, 24, 48 and 72 hours, CCK-8, FIG. 8
Method: B16F1 cells (Korean Cell Line Bank, Seoul) were added to each well of a 96-well plate (5×10^3 cells per well), along with 100 μL of DMEM, and then incubated in a 5% CO2 incubator at 37° C. for 24 hours. The respective wells were treated with 10 μL of each peptide solution of SEQ ID NO: 3 having a concentration of 0.01, 0.1, 1, or 10 μM. After incubating the plate for 24, 48, and 72 hours, each well was treated with CCK-8 (Dojindo Laboratories, Japan) for 1 hour and then the absorbance thereof was measured at 450 nm, using a Spectramax plus 190 plate reader (Molecular Devices, USA).

[6] = system: BCL-2; test: Inhibitory activity against BCL-2 expression in mouse melanoma cell line B16F1 (Western blotting); assay type: cell-based; details: B16F1 cells, UV-B 50 mJ/cm^2 plus peptide in predetermined concentrations, 24 hours, Western blot, FIG. 9
Method: The expression of BCL-2, playing a critical role in proliferation of melanocytes, is controlled by MITF. Whether the BCL-2 expression in melanocytes is inhibited by the treatment of the peptide of the present invention was evaluated, using a Western blotting assay. B16F1 cells (Korean Cell Line Bank, Seoul) were added to each well of a 6-well plate (1.5×10^5 cells per well), along with 2 ml of DMEM, and then incubated in a 5% CO2 incubator at 37° C. for 24 hours. Each well was treated with UV-B irradiation (50 mJ/cm^2) and the peptide of SEQ ID NO: 3 in predetermined concentrations. After incubating the plate for 24 hours, the proteins were extracted therefrom. The extracts were subject to the Western blotting assay using an anti-BCL-2 antibody (Santa Cruz Co., CA, USA).

[7] = system: mouse melanoma cell line B16F1; test: Inhibitory activity against melanin formation in mouse melanoma cell line B16F1; assay type: cell-based; details: B16F1 cells, α-MSH 100 nM, peptide 0.1, 1 and 10 μM, 24 hours, FIG. 5
Method: B16F1 cells (Korean Cell Line Bank, Seoul) were added to each well of a 6-well plate (1.5×10^5 cells per well), along with 2 ml of DMEM, and then incubated in a 5% CO2 incubator at 37° C. for 24 hours. α-MSH (Sigma Co, MO, USA) (100 nM) was treated to each well, along with the peptide of SEQ ID NO: 3 in the final concentrations of 0.1, 1, and 10 μM. The groups in which α-MSH (100 nM) and foskolin (Sigma Co, MO, USA) (10 μM) were respectively treated were used as positive controls. And also, the group having no treatment (i.e., no α-MSH (100 nM) treatment) and the group in which α-MSH (100 nM) and Kojic acid (Sigma Co, MO, USA) (800 μM) were treated were used as negative controls. After additionally incubating the plate for 24 hours, the pictures of each culture ware taken so as to compare the respective levels of melanin formation.

| Substance | expression of TRP-2 [1] | expression of TRP-1 [2] | expression of tyrosinase (TYR) [3] | tyrosinase activity [4] | proliferation of B16F1 cells [5] | expression levels of BCL-2 [6] | melanin formation (colour of cell culture) [7] |
| --- | --- | --- | --- | --- | --- | --- | --- |
| α-melanocyte stimulating hormone (SYSMEHFRWGKPV; ends and bridges not checked; UniProt P01189 138-150, looked up) [α-MSH, melanocyte-stimulating hormone (Sigma), used as stimulus / positive control, reference compound] | increased | increased | increased | increased |  |  |  |
| Lys-Gly-Arg (KGR; Peptide fragment) [SEQ ID NO: 3, MITF-derived peptide fragment] | decreased in concentration-dependent manner | decreased in concentration-dependent manner | decreased in concentration-dependent manner | decreased in concentration-dependent manner | decreased in concentration-dependent manner | reduced | decreased according to the concentrations of the peptide |
